Results on two compounds are retold here after patent US11723540B2, “Device and method for in vivo photoacoustic diagnosis and photothermal purging of infected blood” (priority 2012, dated 2023).

For data set [1] the following is noted: mouse, in vivo. From the text: In this experiment, a prototype PAFC system was used to detect Lymphazurin circulating in the blood vessels of a mouse ear.
The prototype PAFC system was built on the platform of an Olympus BX51 microscope (Olympus America, Inc.) and a tunable optical parametric oscillator (OPO) pumped by an Nd:YAG laser (Lotis Ltd., Minsk, Belarus). […] Laser energy was directed to the blood vessels using a conventional lens, or an optical fiber. PA waves emitted by the cells were detected by ultrasound transducers (unfocused Panametrics model XMS-310, 10 MHz; focused cylindrical Panametrics model V312-SM, 10 MHz, focused lengths of 6 mm, 12 mm, and 55 mm; and customized resonance transducers), and the ultrasound transducer outputs were conditioned by an amplifier (Panametrics model 5662, bandwidth 50 kHz-5 MHz; Panametrics model 5678, bandwidth 50 kHz-40 MHz; customized amplifiers with adjustable high and low frequency boundaries in the range to 50-200 KHz and 1-20 MHz, respectively; resonance bandwidth of 0.3-1.0 MHz). The amplifier output signals were recorded with a Boxcar data acquisition system (Stanford Research Systems, Inc.) and a Tektronix TDS 3032B oscilloscope, and were analyzed using standard and customized software. […] The signals from the oscilloscope screen were recorded with a digital camera (Sony, Inc.) and video camera (JVC, Inc.). […]

The test system of data set [2] is B16F10 cultured mouse melanoma cells. The format is cell-based. From the text:
B16F10 cultured mouse melanoma cells (ATCC, Rockville, Md.) were used in this experiment. The cells were maintained using standard procedures (Ara et al. 1990, Weight et al. 2006, Zharov et al. 2006), including serial passage in phenol-free RPMI 1640 medium (Invitrogen, Carlsbad, Calif.) supplemented with 10% fetal bovine serum (FBS, Invitrogen). For comparison to the detection of unlabeled melanoma cells, the endogenous cell absorption was increased by staining with ICG (Akorn Inc., USA), a strongly absorbent dye in the NIR range, for 30 min at 37° C. and in the presence of 5% CO2.

In the case of `CCN(CC)c1ccc(C(=C2C=CC(=[N+](CC)CC)C=C2)c2cc(S(=O)(=O)[O-])ccc2S(=O)(=O)[O-])cc1.[Na+]` [Lymphazurin, Isosulfan Blue], the “clearance of Lymphazurin from the blood” value in data set [1] is 50 min.

In the case of `CC1(C)C(/C=C/C=C/C=C/C=C2\N(CCCCS(=O)(=O)O)c3ccc4ccccc4c3C2(C)C)=[N+](CCCCS(=O)(=O)[O-])c2ccc3ccccc3c21` [ICG, Indocyanine Green], the “toxicity after labeling (trypan blue exclusion)” value in data set [2] is on record as “No toxicity was observed”.
